The source of these data is US9206184B2, “Disubstituted benzothienyl-pyrrolotriazines and uses thereof” (BAYER INTELLECTUAL PROPERTY GmbH, priority 2011, dated 2015).

In one experiment the target is human FGFR-1 (Homo sapiens, UniProt P11362). Description: FGFR-1 high ATP kinase assay (TR-FRET). The following applies: 2 mM ATP; 15 min pre-incubation with enzyme; compounds of the invention. The format is biochemical. Background: Time-resolved FRET reads energy transfer from a long-lived donor to a nearby acceptor.
Sequence of human FGFR-1 (P11362 22-822 limits assumed): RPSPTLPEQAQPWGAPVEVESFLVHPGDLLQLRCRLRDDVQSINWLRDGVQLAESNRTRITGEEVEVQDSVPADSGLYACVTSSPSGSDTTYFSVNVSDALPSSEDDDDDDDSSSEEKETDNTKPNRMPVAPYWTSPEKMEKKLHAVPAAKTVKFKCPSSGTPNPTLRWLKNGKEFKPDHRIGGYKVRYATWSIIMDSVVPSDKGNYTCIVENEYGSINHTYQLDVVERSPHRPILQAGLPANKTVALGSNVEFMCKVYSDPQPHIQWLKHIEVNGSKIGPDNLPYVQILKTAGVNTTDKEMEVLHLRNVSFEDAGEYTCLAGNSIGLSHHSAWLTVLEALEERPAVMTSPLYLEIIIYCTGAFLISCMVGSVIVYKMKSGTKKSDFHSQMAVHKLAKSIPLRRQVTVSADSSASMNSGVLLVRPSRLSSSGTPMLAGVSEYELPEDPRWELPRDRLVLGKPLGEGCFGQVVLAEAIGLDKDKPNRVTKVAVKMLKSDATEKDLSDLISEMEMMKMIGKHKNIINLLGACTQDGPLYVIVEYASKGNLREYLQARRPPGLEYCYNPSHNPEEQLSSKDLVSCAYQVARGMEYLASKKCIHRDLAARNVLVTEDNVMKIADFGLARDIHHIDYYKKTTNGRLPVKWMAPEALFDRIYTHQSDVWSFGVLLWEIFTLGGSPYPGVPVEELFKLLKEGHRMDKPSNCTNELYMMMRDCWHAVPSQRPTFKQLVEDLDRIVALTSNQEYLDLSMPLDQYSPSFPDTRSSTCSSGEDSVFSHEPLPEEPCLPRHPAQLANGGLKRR
For another experiment, the target named is human FGFR-3 (Homo sapiens (Human), UniProt P22607). Kind of experiment: FGFR-3 kinase assay (TR-FRET). The format is biochemical. The following applies: 10 μM ATP.
Sequence of human FGFR-3 (P22607 397-806): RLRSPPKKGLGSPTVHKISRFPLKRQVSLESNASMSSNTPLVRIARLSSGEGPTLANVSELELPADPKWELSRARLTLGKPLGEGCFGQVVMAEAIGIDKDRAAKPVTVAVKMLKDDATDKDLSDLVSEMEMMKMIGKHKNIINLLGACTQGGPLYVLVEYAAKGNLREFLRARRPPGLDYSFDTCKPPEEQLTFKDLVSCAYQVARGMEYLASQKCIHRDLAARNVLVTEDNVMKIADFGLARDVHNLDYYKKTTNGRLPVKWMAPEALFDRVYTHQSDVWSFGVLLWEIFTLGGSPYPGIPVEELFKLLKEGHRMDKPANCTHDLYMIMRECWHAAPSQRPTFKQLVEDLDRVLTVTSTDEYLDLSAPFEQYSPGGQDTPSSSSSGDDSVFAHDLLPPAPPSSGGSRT
Where [1] appears, read: 15 min pre-incubation with enzyme, compounds of the invention.
The mark [2] stands for this setting: 15 min pre-incubation with enzyme, compounds of the invention, dihydrochloride.
The mark [3] stands for this setting: comparative prior art compounds, labels are Example No. in WO 2007/061737.

Counter-ions that a name gives are not always drawn.

By IC50 is commonly meant the concentration needed to halve the response being measured. Low values mean higher potency, high ones lower potency. Take `COc1cc(C)cc2cc(-c3c(CO)c(C#N)n4ncnc(N)c34)sc12` [Example 68, 4-Amino-6-(hydroxymethyl)-5-(7-methoxy-5-methyl-1-benzothiophen-2-yl)pyrrolo[2,1-f][1,2,4]-triazine-7-carbonitrile]: the IC50 on human FGFR-1 was 27 nM; against human FGFR-3 (setting [1]) it was 42.7 nM.

In the case of `COc1cc(C)cc2cc(-c3c(CNCC(C)O)c(CN4CCOCC4)n4ncnc(N)c34)sc12` (racemic) [Example 53, rac-1-({[4-Amino-5-(7-methoxy-5-methyl-1-benzothiophen-2-yl)-7-(morpholin-4-ylmethyl)pyrrolo[2,1-f][1,2,4]triazin-6-yl]methyl}amino)propan-2-ol], the figures for the IC50 on human FGFR-1 and on human FGFR-3 (setting [1]) were 3.9 nM and 2.5 nM, respectively.

As for `COCc1c(-c2cc3cc(C)cc(OC)c3s2)c2c(N)ncnn2c1CN[C@@H]1CCNC1=O` [Example 3, (3R)-3-({[4-Amino-6-(methoxymethyl)-5-(7-methoxy-5-methyl-1-benzothiophen-2-yl)pyrrolo-[2,1-f][1,2,4]triazin-7-yl]methyl}amino)pyrrolidin-2-one dihydrochloride], the IC50 against human FGFR-3 (setting [2]) is 46.6 nM.

Take `COc1cc(C)cc2cc(-c3c(CN[C@H]4CCNC4=O)c(CN4CCOCC4)n4ncnc(N)c34)sc12` [Example 51, (3S)-3-({[4-Amino-5-(7-methoxy-5-methyl-1-benzothiophen-2-yl)-7-(morpholin-4-ylmethyl)pyrrolo[2,1-f][1,2,4]triazin-6-yl]methyl}amino)pyrrolidin-2-one]: the values for the IC50 on human FGFR-1 and on human FGFR-3 (setting [1]) were 4.4 nM and 3.9 nM, respectively.

As for `COc1cc(C)cc2cc(-c3c(CN4CCNC(=O)C4)c(C)n4ncnc(N)c34)sc12` [Example 76, 4-{[4-Amino-5-(7-methoxy-5-methyl-1-benzothiophen-2-yl)-7-methylpyrrolo[2,1-f][1,2,4]triazin-6-yl]methyl}piperazin-2-one], the IC50 at human FGFR-1 was found to be 2.8 nM; at human FGFR-3 (setting [1]), 1.4 nM.

Turning to `COc1cc(C)cc2cc(-c3c(CNC(C)=O)c(CN4CCN(C(C)=O)CC4)n4ncnc(N)c34)sc12` [Example 66, N-({7-[(4-Acetylpiperazin-1-yl)methyl]-4-amino-5-(7-methoxy-5-methyl-1-benzothiophen-2-yl)pyrrolo[2,1-f][1,2,4]triazin-6-yl}methyl)acetamide], the IC50 at human FGFR-1 came to 1.6 nM; against human FGFR-3 (setting [1]), 3.7 nM.

Turning to `COc1cc(C)cc2cc(-c3c(CO)c(CN4CCNC(=O)C4)n4ncnc(N)c34)sc12` [Example 13, 4-{[4-Amino-6-(hydroxymethyl)-5-(7-methoxy-5-methyl-1-benzothiophen-2-yl)pyrrolo[2,1-f]-[1,2,4]triazin-7-yl]methyl}piperazin-2-one], the IC50 against human FGFR-1 turned out to be 2.5 nM; at human FGFR-3 (setting [1]), 10 nM.

On to `COc1cc(C)cc2cc(-c3c(CN4CCNC(=O)C4)c(CN4CCN(C=O)CC4)n4ncnc(N)c34)sc12` [Example 58, 4-({4-Amino-5-(7-methoxy-5-methyl-1-benzothiophen-2-yl)-6-[(3-oxopiperazin-1-yl)methyl]-pyrrolo[2,1-f][1,2,4]triazin-7-yl}methyl)piperazine-1-carbaldehyde formiate], for which the figures for the IC50 at human FGFR-1 and on human FGFR-3 (setting [1]) were 6.8 nM and 9.8 nM, respectively.

Take `COc1cc(C)cc2cc(-c3c(CN4CCNC(=O)C4)c(CN4CCOCC4)n4ncnc(N)c34)sc12` [Example 52, 4-{[4-Amino-5-(7-methoxy-5-methyl-1-benzothiophen-2-yl)-7-(morpholin-4-ylmethyl)pyrrolo-[2,1-f][1,2,4]triazin-6-yl]methyl}piperazin-2-one]: the IC50 against human FGFR-1 stood at 9.7 nM; on human FGFR-3 (setting [1]), 7 nM.

In the case of `COc1cc(C)cc2cc(-c3c(COCC(N)=O)c(CN4CCN(C(C)=O)CC4)n4ncnc(N)c34)sc12` [Example 34, 2-({7-[(4-Acetylpiperazin-1-yl)methyl]-4-amino-5-(7-methoxy-5-methyl-1-benzothiophen-2-yl)pyrrolo[2,1-f][1,2,4]triazin-6-yl}methoxy)acetamide], the IC50 against human FGFR-1 turned out to be 6 nM; against human FGFR-3 (setting [1]), 10.5 nM.

In turn, `Cc1c(-c2nc(C3CCC3)n3ccnc(N)c23)sc2ccccc12` [Example 210 in WO 2007/061737, reference compound] came in with an IC50 at human FGFR-3 (setting [3]) of 554 nM. This lies in the sub-micromolar range.

Turning to `COc1cc(C)cc2cc(-c3c(COCC4CC4)c(CN4CCNCC4)n4ncnc(N)c34)sc12` [Example 25, 6-[(Cyclopropylmethoxy)methyl]-5-(7-methoxy-5-methyl-1-benzothiophen-2-yl)-7-(piperazin-1-ylmethyl)pyrrolo[2,1-f][1,2,4]triazin-4-amine bis(formiate)], the IC50 against human FGFR-1 was 0.7 nM; at human FGFR-3 (setting [1]) it was 5.2 nM.

Take `COc1cc(C)cc2cc(-c3c(CNC(C)=O)c(CN4CCN(C=O)CC4)n4ncnc(N)c34)sc12` [Example 65, N-({4-Amino-7-[(4-formylpiperazin-1-yl)methyl]-5-(7-methoxy-5-methyl-1-benzothiophen-2-yl)pyrrolo[2,1-f][1,2,4]triazin-6-yl}methyl)acetamide formiate]: the IC50 on human FGFR-1 came to 5.6 nM; on human FGFR-3 (setting [1]), 3.1 nM.

For the compound `COc1cc(C)cc2cc(-c3c(COc4ccccc4)c(CN4CCNCC4)n4ncnc(N)c34)sc12` [Example 35, 5-(7-Methoxy-5-methyl-1-benzothiophen-2-yl)-6-(phenoxymethyl)-7-(piperazin-1-ylmethyl)pyrrolo[2,1-f][1,2,4]triazin-4-amine bis(formiate)], the values for the IC50 against human FGFR-1 and on human FGFR-3 (setting [1]) were 61.3 nM and 65.4 nM, respectively.

On to `COc1cc(C)cc2cc(-c3c(CNCC(C)(C)O)c(Cl)n4ncnc(N)c34)sc12` [Example 82, 1-({[4-Amino-7-chloro-5-(7-methoxy-5-methyl-1-benzothiophen-2-yl)pyrrolo[2,1-f][1,2,4]triazin-6-yl]methyl}amino)-2-methylpropan-2-ol], for which the IC50 was 3.4 nM against human FGFR-1 and 16 nM on human FGFR-3 (setting [1]).

Take `COc1cc(C)cc2cc(-c3c(CNC(C)=O)c(CN4CCNC(=O)C4)n4ncnc(N)c34)sc12` [Example 67, N-({4-Amino-5-(7-methoxy-5-methyl-1-benzothiophen-2-yl)-7-[(3-oxopiperazin-1-yl)methyl]-pyrrolo[2,1-f][1,2,4]triazin-6-yl}methyl)acetamide]: the IC50 was determined as 5 nM on human FGFR-1 and 9.4 nM against human FGFR-3 (setting [1]).

Regarding `COc1cc(C)cc2cc(-c3c(COC4CCC4)c(CN4CCNCC4)n4ncnc(N)c34)sc12` [Example 26, 6-[(Cyclobutyloxy)methyl]-5-(7-methoxy-5-methyl-1-benzothiophen-2-yl)-7-(piperazin-1-ylmethyl)pyrrolo[2,1-f][1,2,4]triazin-4-amine], the IC50 on human FGFR-1 worked out at 0.9 nM; against human FGFR-3 (setting [1]), 4.9 nM.

With `COC(=O)c1c(-c2cc3cc(C)cc(OC)c3s2)c2c(N)ncnn2c1C(=O)N1CCNCC1` [Example 60, Methyl 4-amino-5-(7-methoxy-5-methyl-1-benzothiophen-2-yl)-7-(piperazin-1-ylcarbonyl)pyrrolo-[2,1-f][1,2,4]triazine-6-carboxylate bis(formiate)], the IC50 on human FGFR-1 was 16.2 nM; against human FGFR-3 (setting [1]), 77.9 nM.

With `COc1cc(C)cc2cc(-c3c(CNC4CCC4)c(CN4CCNCC4)n4ncnc(N)c34)sc12` [Example 44, 6-[(Cyclobutylamino)methyl]-5-(7-methoxy-5-methyl-1-benzothiophen-2-yl)-7-(piperazin-1-ylmethyl)pyrrolo[2,1-f][1,2,4]triazin-4-amine trihydrochloride], the IC50 against human FGFR-3 (setting [1]) amounted to 6.1 nM.

As to `CCOCc1c(-c2cc3cc(C)cc(OC)c3s2)c2c(N)ncnn2c1CN1CCNC(=O)C1` [Example 6, 4-{[4-Amino-6-(ethoxymethyl)-5-(7-methoxy-5-methyl-1-benzothiophen-2-yl)pyrrolo-[2,1-f][1,2,4]triazin-7-yl]methyl}piperazin-2-one dihydrochloride], half-maximal inhibition against human FGFR-3 (setting [2]) (IC50) required 28.5 nM.

Regarding `COCc1c(-c2cc3cc(C)cc(OC)c3s2)c2c(N)ncnn2c1CN[C@@H]1CCNC1=O` [Example 4, (3R)-3-({[4-Amino-6-(methoxymethyl)-5-(7-methoxy-5-methyl-1-benzothiophen-2-yl)pyrrolo-[2,1-f][1,2,4]triazin-7-yl]methyl}amino)pyrrolidin-2-one], half-maximal inhibition against human FGFR-3 (setting [1]) (IC50) was put at 24.8 nM.

Take `CCOCc1c(-c2cc3cc(C)cc(OC)c3s2)c2c(N)ncnn2c1CN1CCNC(=O)C1` [Example 5, 4-{[4-Amino-6-(ethoxymethyl)-5-(7-methoxy-5-methyl-1-benzothiophen-2-yl)pyrrolo[2,1-f]-[1,2,4]triazin-7-yl]methyl}piperazin-2-one]: inhibition against human FGFR-3 (setting [1]) was half-maximal at 12.1 nM (IC50).

At human FGFR-1, `CCOCc1c(-c2cc3cc(C)cc(OC)c3s2)c2c(N)ncnn2c1CN[C@H]1CCNC1=O` [Example 93, (3S)-3-({[4-Amino-6-(ethoxymethyl)-5-(7-methoxy-5-methyl-1-benzothiophen-2-yl)pyrrolo[2,1-f]-[1,2,4]triazin-7-yl]methyl}amino)pyrrolidin-2-one] returned an IC50 of 5.5 nM. This lies in the single-digit nanomolar range.

On to `CCOCc1c(-c2cc3cc(C)cc(OC)c3s2)c2c(N)ncnn2c1C(=O)N1CCS(=O)(=O)CC1` [Example 123], for which, at human FGFR-1, the IC50 amounted to 25.1 nM.

`Nc1nccn2c(C3CCC3)nc(-c3cc4cccc(Cl)c4s3)c12` [Example 233 in WO 2007/061737, reference compound]: on human FGFR-3 (setting [3]), the IC50 is 10000 nM.

Compound `COCc1c(-c2cc3cccc(OC)c3s2)c2c(N)ncnn2c1CN1CCNC(=O)C1` [Example 88, 4-{[4-Amino-5-(7-methoxy-1-benzothiophen-2-yl)-6-(methoxymethyl)pyrrolo[2,1-f][1,2,4]triazin-7-yl]methyl}piperazin-2-one] gave an IC50 on human FGFR-1 of 79.6 nM.

Turning to `COCc1c(-c2cc3cc(C)cc(OC)c3s2)c2c(N)ncnn2c1CN1CCNCC1` [Example 17, 6-(Methoxymethyl)-5-(7-methoxy-5-methyl-1-benzothiophen-2-yl)-7-(piperazin-1-ylmethyl)pyrrolo[2,1-f][1,2,4]triazin-4-amine formiate], the IC50 against human FGFR-1 was 0.9 nM. This IC50 is about 88-fold lower than that of the compound before.
